Several values for one entry are separate records, joined by “and”; a condition that tells them apart may be missing. Identical values can stand only once. Entries after “also recorded” stand apart in the source; their conditions may differ.

Experiment [1] is described as follows: Clonogenic assay, OLA with or without RTX-161 (Fig. 2 a; cell line not given). It counts as cell-based. The settings on record: vehicle, single experiments.
The test system of another experiment is DLD1 BRCA2 -/- cells. Put plainly: Clonogenic assay. It counts as cell-based. As to conditions: for average / percent suvival / replicate counts: vehicle, DLD1-BRCA2 null cells. As for the experimental part: (§1) Cells were plated on six or twelve or twenty-four well plates. In six well plate, 1000 cells/ well of BRCA2 -/-, BRCA1 -/-, PALB2 mut and 500 cells/ well of wildtype pair was plated; In twelve well plate, 600 cells/ well of BRCA2 -/-, BRCA1 -/-, PALB2 mut and 400 cells/ well of wildtype pair was plated; In twenty-four well plate, 500 cells/ well of BRCA2 -/-, BRCA1 -/-, PALB2 mut and 300 cells/ well of wildtype pair was plated. For MEFs, 300 cells per well in six-well plate were seeded. The medium was replaced every 2 days until the colonies were ready for staining in 10–12 days. For staining: Medium was removed from plates, and cells were rinsed with PBS. Fixation was carried out with—Water: Ethanol: Acetic acid (5:4:1) for 30 min followed by staining of colonies with 0.5% crystal violet in Water: Ethanol (3:2) for 2 h at room temperature. The plates were rinsed with water and left for drying overnight at room temperature. Colonies were then counted and IC50 was calculated using results from 3 or more independent experiments. Response curves are shown as mean colony formation +/- S.E.M.
(§2) Data are expressed as mean ± SEM from at least 3 independent experiments with triplicates for each condition unless stated otherwise. When conducting comparison between two groups, two-tailed unpaired t-test was used. Significance was assumed at p < 0.05. Asterisks in the figures indicate significance, ^∗p < 0.05, ^∗∗p < 0.01, ^∗∗∗p < 0.001. Combenefit® software version 2.021 was used to perform synergy analyses for drug combinations between RTx-161 and PARPi. GraphPad Prism 9 software was used to calculate IC50.

A further experiment concerns DLD1 Parental cells. Put plainly: Clonogenic assay. In kind it is cell-based. The settings on record: Olaparib 1 μM, BRCA2-WT. As for the experimental part:
as §1

In the next experiment the test system is MDA-MB-231 cells. In words: Clonogenic assay. In kind it is cell-based. As to conditions: Fig. 2f, vehicle (Rtx-161 zero). The method, then:
as §1, §2

In a further experiment the target is T1, Polθ-pol (Homo sapiens, UniProt O75417).
T1 construct: purified recombinant human Polθ-pol (comprising amino acid residues 1792–2590); made in house
T1 sequence (O75417 1792-2590): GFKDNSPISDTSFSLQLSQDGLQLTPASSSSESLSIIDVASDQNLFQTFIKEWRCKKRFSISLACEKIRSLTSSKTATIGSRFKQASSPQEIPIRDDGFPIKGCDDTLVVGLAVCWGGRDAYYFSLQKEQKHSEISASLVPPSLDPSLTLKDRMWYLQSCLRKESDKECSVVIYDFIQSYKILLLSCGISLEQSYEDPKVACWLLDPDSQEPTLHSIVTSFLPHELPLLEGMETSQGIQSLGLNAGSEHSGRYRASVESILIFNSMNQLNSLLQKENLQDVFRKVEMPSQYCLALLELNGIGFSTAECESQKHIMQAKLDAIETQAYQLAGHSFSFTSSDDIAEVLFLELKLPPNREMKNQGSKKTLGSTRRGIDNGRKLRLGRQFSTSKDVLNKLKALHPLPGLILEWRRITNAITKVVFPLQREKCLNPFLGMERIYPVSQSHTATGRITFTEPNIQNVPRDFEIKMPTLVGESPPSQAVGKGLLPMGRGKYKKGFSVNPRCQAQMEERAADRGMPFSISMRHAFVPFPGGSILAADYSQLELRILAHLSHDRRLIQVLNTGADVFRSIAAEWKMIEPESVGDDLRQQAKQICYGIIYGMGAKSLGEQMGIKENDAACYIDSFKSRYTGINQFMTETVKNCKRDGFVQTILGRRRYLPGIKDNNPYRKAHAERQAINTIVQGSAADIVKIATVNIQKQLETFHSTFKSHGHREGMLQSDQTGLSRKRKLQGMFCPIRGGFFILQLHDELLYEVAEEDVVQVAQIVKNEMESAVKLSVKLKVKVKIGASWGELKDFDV
Put plainly: Cy5 fluorescence Polθ-pol DNA synthesis (strand displacement) IC50 assay. It counts as biochemical. The settings on record: 5 nM PolQ, 18 min. The method, then:
The following Cy5 fluorescence assay was used to measure the ability of compounds to inhibit Polθ-pol in vitro. The fluorescent based assay was performed as follows: 60 nM of the pre-annealed primer-template containing a 5’ Cy5 fluorophore conjugated template strand (RP486-Cy5), a downstream complementary oligo conjugated with a 3’ Iowa BlackReg Dark quencher (RP343BHQRQ) and a primer strand (RP469D) was mixed with 50 uM 2'-deoxyribonucleoside triphosphates (dNTPs), 0.1 mg/mL Bovine serum albumin (BSA), 0.01% NP-40, 10% glycerol, 1 mM dithiothreitol (DTT), 10 mM MgCl2, 25 mM TrisHCl pH 7.8 in the presence of 2.5% DMSO with or without various concentrations (7-point dilution series) of Polθ-pol small-molecule inhibitors at 37 °C in a volume of 40 μL. The reactions were initiated by the addition of 5 nM of purified recombinant human Polθ-pol (comprising amino acid residues 1792–2590). The reactions were terminated by the addition of 20 mM EDTA after 18 min, and the Cy5 fluorescence intensity was measured using a CLARIOstar (BMG Labtech) plate reader. Reactions were performed in triplicate and the % inhibition at each concentration of the respective compound of Formula I was based on the mean.

Take `O=C(c1cc(Cc2n[nH]c(=O)c3ccccc23)ccc1F)N1CCN(C(=O)C2CC2)CC1` [OLA]: the percent suvival in experiment [1] (OLA 0.125 nano M) was 98.3333%; in experiment [1] (OLA 0.25 nano M), 90.8333% and 74.269% and 96.7105%; in experiment [1] (OLA 0.5 nano M) it was 67.8363% and 93.4211% and 71.6667%; in experiment [1] (OLA 1 nano M), 43.3333% and 47.9532% and 73.6842%; in experiment [1] (OLA 2 nano M), 35% and 27.4854% and 32.2368%; in experiment [1] (OLA 4 nano M), 17.5% and 9.357% and 9.868%. Further, the percent suvival is on record as 96.463% with DLD1 BRCA2 -/- cells (OLA 3.125 nano M); 82.9582% in the experiment on DLD1 BRCA2 -/- cells (OLA 6.25 nano M); 65.9164% with DLD1 BRCA2 -/- cells (OLA 12.50 nano M); 44.0514% with DLD1 BRCA2 -/- cells (OLA 25.00 nano M); 36.6559% in the experiment on DLD1 BRCA2 -/- cells (OLA 50.00 nano M); 19.6141% with DLD1 BRCA2 -/- cells (OLA 100.00 nano M). Also, the average is 100 in the experiment with DLD1 BRCA2 -/- cells (OLA 3.125 nano M); 86 in the experiment with DLD1 BRCA2 -/- cells (OLA 6.25 nano M); 68.3333 in the experiment on DLD1 BRCA2 -/- cells (OLA 12.50 nano M); 45.6667 with DLD1 BRCA2 -/- cells (OLA 25.00 nano M); 38 in the experiment on DLD1 BRCA2 -/- cells (OLA 50.00 nano M); 20.3333 in the experiment on DLD1 BRCA2 -/- cells (OLA 100.00 nano M). For the same compound, the replicate counts with DLD1 BRCA2 -/- cells (OLA 3.125 nano M) was 99 and 93 and 108; in the experiment on DLD1 BRCA2 -/- cells (OLA 6.25 nano M), 84 and 95 and 79; in the experiment with DLD1 BRCA2 -/- cells (OLA 12.50 nano M), 64 and 72 and 69; in the experiment with DLD1 BRCA2 -/- cells (OLA 25.00 nano M), 49 and 40 and 48; in the experiment on DLD1 BRCA2 -/- cells (OLA 50.00 nano M), 37 and 42 and 35; with DLD1 BRCA2 -/- cells (OLA 100.00 nano M) it was 24 and 18 and 19.
For the compound `O=C(c1cc(Cc2n[nH]c(=O)c3ccccc23)ccc1F)N1CCN(C(=O)C2CC2)CC1` [Olaparib, reference compound], in the experiment with DLD1 Parental cells, the Average (colonies) was found to be 102.667 and the Percent survival is 99.6764. Moreover, in the experiment with DLD1 BRCA2 -/- cells (Olaparib 1 μM, BRCA2-NULL), the Average (colonies) was determined as 0 and the Percent survival is 0. For the same compound, the “selective killing / synthetic lethality in BRCA2-null DLD1 cells” value with DLD1 BRCA2 -/- cells (colony survival, versus BRCA2-WT) was “selective killing; also recorded: induction of synthetic lethality”.
Regarding `Cn1ncnc1[C@H]1c2n[nH]c(=O)c3cc(F)cc(c23)N[C@@H]1c1ccc(F)cc1` [Talazoparib], the percent suvival in the experiment with MDA-MB-231 cells (Talazoparib 12.5 nano M, experiment block 1 (c0-c7)) was found to be 83.7456%; in the experiment with MDA-MB-231 cells (Talazoparib 12.5 nano M, experiment block 2 (c8-c15)), 90.5063%; with MDA-MB-231 cells (Talazoparib 12.5 nano M, experiment block 3 (c16-c23)) it was 79.3478%; in the experiment with MDA-MB-231 cells (Talazoparib 25 nano M, experiment block 1 (c0-c7)) it was 72.4382%; in the experiment on MDA-MB-231 cells (Talazoparib 25 nano M, experiment block 2 (c8-c15)), 53.1646%; with MDA-MB-231 cells (Talazoparib 25 nano M, experiment block 3 (c16-c23)) it was 57.0652%. Further, the percent suvival in the experiment with MDA-MB-231 cells (Talazoparib 50 nano M, experiment block 1 (c0-c7)) is recorded as 24.735%; in the experiment on MDA-MB-231 cells (Talazoparib 50 nano M, experiment block 2 (c8-c15)) it was 34.1772%; in the experiment on MDA-MB-231 cells (Talazoparib 50 nano M, experiment block 3 (c16-c23)), 30.9783%.
For the compound ART-558, the “raw signal, Trial 1-3” value on Polθ-pol (0.0016 μM compound, 60 nM 469D/343-BHQRQ/486-Cy5 DNA) was 191.03 and 186.60 and 188.77; on Polθ-pol (0.0049 μM compound, 60 nM DNA), 171.92 and 173.21 and 159.20; at Polθ-pol (0.0148 μM compound, 60 nM DNA) it was 136.44 and 129.18 and 136.16; on Polθ-pol (0.0444 μM compound, 60 nM DNA), 107.36 and 98.15 and 102.46; at Polθ-pol (0.1333 μM compound, 60 nM DNA), 85.13 and 86.41 and 81.22; at Polθ-pol (0.4000 μM compound, 60 nM DNA), 77.91 and 78.16 and 79.89. Also, the “% Activity, Average” value at Polθ-pol (0.0016 μM compound, 60 nM DNA) is on record as 85.90%; at Polθ-pol (0.0049 μM compound, 60 nM DNA) it was 70.18%; on Polθ-pol (0.0148 μM compound, 60 nM DNA) it was 44.31%; on Polθ-pol (0.0444 μM compound, 60 nM DNA), 20.55%; at Polθ-pol (0.1333 μM compound, 60 nM DNA), 6.69%; at Polθ-pol (0.4000 μM compound, 60 nM DNA), 2.48%. Moreover, the “% Activity, Trial 1-3” value was 80.91% and 85.80% and 91.00% at Polθ-pol (0.0016 μM compound, 60 nM DNA); 67.33% and 75.35% and 67.85% on Polθ-pol (0.0049 μM compound, 60 nM DNA); 42.11% and 41.00% and 49.82% on Polθ-pol (0.0148 μM compound, 60 nM DNA); 21.44% and 16.79% and 23.44% at Polθ-pol (0.0444 μM compound, 60 nM DNA); 5.64% and 7.63% and 6.80% at Polθ-pol (0.1333 μM compound, 60 nM DNA); 0.51% and 1.19% and 5.76% at Polθ-pol (0.4000 μM compound, 60 nM DNA). Further, the “% Inhibition, Average” value is on record as 14.10% on Polθ-pol (0.0016 μM compound, 60 nM DNA); 29.82% on Polθ-pol (0.0049 μM compound, 60 nM DNA); 55.69% on Polθ-pol (0.0148 μM compound, 60 nM DNA); 79.45% at Polθ-pol (0.0444 μM compound, 60 nM DNA); 93.31% on Polθ-pol (0.1333 μM compound, 60 nM DNA); 97.52% on Polθ-pol (0.4000 μM compound, 60 nM DNA). Besides, the “raw signal, Average” value at Polθ-pol (0.0016 μM compound, 60 nM DNA) came to 188.80; on Polθ-pol (0.0049 μM compound, 60 nM DNA), 168.11; at Polθ-pol (0.0148 μM compound, 60 nM DNA) it was 133.93; at Polθ-pol (0.0444 μM compound, 60 nM DNA) it was 102.66; at Polθ-pol (0.1333 μM compound, 60 nM DNA), 84.25; on Polθ-pol (0.4000 μM compound, 60 nM DNA) it was 78.65. Further, the “% Inhibition, Trial 1-3” value at Polθ-pol (0.0049 μM compound, 60 nM DNA) was 32.67% and 24.65% and 32.15%; at Polθ-pol (0.0148 μM compound, 60 nM DNA), 57.89% and 59.00% and 50.18%; at Polθ-pol (0.0444 μM compound, 60 nM DNA), 78.56% and 83.21% and 76.56%; at Polθ-pol (0.1333 μM compound, 60 nM DNA), 94.36% and 92.37% and 93.20%; at Polθ-pol (0.4000 μM compound, 60 nM DNA), 99.49% and 98.81% and 94.24%.

For the origin of these results see article PMC10997755, “Discovery of a small-molecule inhibitor that traps Polθ on DNA and synergizes with PARP inhibitors” (Nature Communications, 2024).
